# Source: ChEMBL document CHEMBL3414515, “Design of a potent antibiotic peptide based on the active region of human defensin 5” (J Med Chem, 2015)
# Active and inactive are the calls of the source. The rule behind the calls is not given here. Positions of bridges follow the written chain, without caps; N, C: chain ends. Residues, ends and D or L forms follow the SMILES beside them.
# What was measured:
# [1] = Induction of hemolysis in mouse erythrocytes at 12.5 and 25 ug/ml incubated at 37 degC for 15 mins; format: cell-based; settings: erythrocyte, 0.25 h
# Staphylococcus aureus [2] = assay: Antibacterial activity against Staphylococcus aureus ATCC 25923 assessed as reduction in bacterial survival rate; format: functional; settings: for LC50: Staphylococcus aureus, ATCC 25923, read-out: LD50 (the source's name)
# Escherichia coli [3] = assay: Antibacterial activity against Escherichia coli ATCC 25922 assessed as reduction in bacterial survival rate 12.5 ug/ml in presence of 150 mM NaCl; format: functional, organism-based
# Escherichia coli [4] = assay: Antibacterial activity against Escherichia coli ATCC 25922 assessed as reduction in bacterial survival rate at 25 ug/ml in presence of 10% mouse serum; format: functional, organism-based
# [5] = Induction of hemolysis in mouse erythrocytes up to 100 ug/ml incubated at 37 degC for 15 mins; format: cell-based, Erythrocyte; settings: read-out: Activity
# Staphylococcus aureus [6] = assay: Antibacterial activity against Staphylococcus aureus ATCC 25923 assessed as reduction in bacterial survival rate at 25 ug/ml in presence of 10% mouse serum; format: functional, organism-based
# [7] = Binding affinity to Rd mutant containing Escherichia coli F583 lipid A assessed as equilibrium dissociation constant in presence of 75 mM NaCl by bilayer interferometry
# [8] = Stability in presence of 400 U/L trypsin assessed as compound degradation at 100 ug/ml after 4 to 12 hrs by HPLC and LC-MS method; format: physicochemical; settings: isolated protein
# Escherichia coli [9] = assay: Antibacterial activity against Escherichia coli ATCC 25922 assessed as reduction in bacterial survival rate; format: functional; settings: for LC50: Escherichia coli, ATCC 25922, read-out: LD50 (the source's name)
# Escherichia coli [10] = assay: Antibacterial activity against Escherichia coli ATCC 25922 assessed as reduction in bacterial survival rate at 12.5 ug/ml in presence of >75 mM NaCl; format: functional, organism-based
# [11] = Binding affinity to Rd mutant containing Escherichia coli F583 lipid A assessed as equilibrium dissociation constant by bilayer interferometry
# [12] = Binding affinity to Staphylococcus aureus lipoteichoic acid assessed as equilibrium dissociation constant by bilayer interferometry
# Escherichia coli [13] = assay: Induction of outer membrane disintegration in Escherichia coli ATCC 25922 at 6.25 ug/ml by NPN uptake assay; format: functional, organism-based
# Escherichia coli [14] = assay: Induction of inner membrane disintegration in Escherichia coli ML35 ATCC 43827 at 1.6 to 6.3 ug/ml by ONPG hydrolysis assay; format: functional, organism-based
# Escherichia coli [15] = assay: Induction of inner membrane disintegration in Escherichia coli ML35 ATCC 43827 at 0.78 to 1.6 ug/ml by ONPG hydrolysis assay; format: functional, organism-based
Compound,Activity [1],LD90 (Staphylococcus aureus [2]) [µg/mL],LC50 (Staphylococcus aureus [2]) [µg/mL],Activity (Escherichia coli [3]),Activity (Escherichia coli [4]),hemolysis at 0.25 h [5] [%],Activity (Staphylococcus aureus [6]),Kd [7] [µM],Stability [8],LD90 (Escherichia coli [9]) [µg/mL],LC50 (Escherichia coli [9]) [µg/mL],Activity (Escherichia coli [10]),Kd [11] [µM],Kd [12] [µM],Activity (Escherichia coli [13]),Activity (Escherichia coli [14]),Activity (Escherichia coli [15])
CC[C@H](C)[C@H](NC(=O)CN)C(=O)NCC(=O)N[C@@H](C)C(=O)N[C@H](C(=O)N[C@@H](CC(C)C)C(=O)N[C@@H](CCCCN)C(=O)N[C@H](C(=O)N[C@@H](CC(C)C)C(=O)N[C@H](C(=O)N[C@H](C(=O)NCC(=O)N[C@@H](CC(C)C)C(=O)N1CCC[C@H]1C(=O)N[C@@H](C)C(=O)N[C@@H](CC(C)C)C(=O)N[C@H](C(=O)N[C@@H](CO)C(=O)N[C@@H](Cc1c[nH]c2ccccc12)C(=O)N[C@H](C(=O)N[C@@H](CCCCN)C(=O)N[C@@H](CCCNC(=N)N)C(=O)N[C@@H](CCCCN)C(=O)N[C@@H](CCCNC(=N)N)C(=O)N[C@@H](CCC(N)=O)C(=O)N[C@@H](CCC(N)=O)C(N)=O)[C@@H](C)CC)[C@@H](C)CC)[C@@H](C)O)[C@@H](C)O)C(C)C)C(C)C [MELITTIN],Toxic,,,,,,,,,,,,,,,,
"CC[C@H](C)[C@@H]1NC(=O)[C@H](CCCNC(=N)N)NC(=O)[C@@H]2CSSC[C@@H]3NC(=O)[C@H](Cc4ccc(O)cc4)NC(=O)[C@@H](NC(=O)[C@@H](NC(=O)[C@H](C)N)[C@@H](C)O)CSSC[C@@H](C(=O)N[C@@H](CCCNC(=N)N)C(=O)O)NC(=O)[C@H](CSSC[C@H](NC(=O)[C@H](CCCNC(=N)N)NC(=O)CNC(=O)[C@H](CCCNC(=N)N)NC(=O)[C@H](CCCNC(=N)N)NC3=O)C(=O)N[C@@H](C)C(=O)N[C@@H]([C@@H](C)O)C(=O)N[C@@H](CCCNC(=N)N)C(=O)N[C@@H](CCC(=O)O)C(=O)N[C@@H](CO)C(=O)N[C@@H](CC(C)C)C(=O)N[C@@H](CO)C(=O)NCC(=O)N[C@@H](C(C)C)C(=O)N2)NC(=O)[C@H](CC(C)C)NC(=O)[C@H](CCCNC(=N)N)NC(=O)[C@H](Cc2ccc(O)cc2)NC(=O)[C@H](CC(C)C)NC(=O)[C@H](CCCNC(=N)N)NC(=O)CNC(=O)[C@H](CO)NC1=O (H-ATCYCRRGRCATRESLSGVCRISGRLYRLCCR-OH; disulfide 3-31, 5-20, 10-30)",,1.4,< 0.39,Active,Active,≤ 1,Active,0.048,Stable,1.8,0.8,,,,,,
"CC[C@H](C)[C@@H]1NC(=O)[C@H](CCC(=O)O)NC(=O)[C@@H]2CSSC[C@@H]3NC(=O)[C@H](Cc4ccc(O)cc4)NC(=O)[C@@H](NC(=O)[C@@H](NC(=O)[C@H](C)N)[C@@H](C)O)CSSC[C@@H](C(=O)N[C@@H](CCCNC(=N)N)C(=O)O)NC(=O)[C@H](CSSC[C@H](NC(=O)[C@H](CCCNC(=N)N)NC(=O)CNC(=O)[C@H]([C@@H](C)O)NC(=O)[C@H](CCCNC(=N)N)NC3=O)C(=O)N[C@@H](C)C(=O)N[C@@H]([C@@H](C)O)C(=O)N[C@@H](CCCNC(=N)N)C(=O)N[C@@H](CCC(=O)O)C(=O)N[C@@H](CO)C(=O)N[C@@H](CC(C)C)C(=O)N[C@@H](CO)C(=O)NCC(=O)N[C@@H](C(C)C)C(=O)N2)NC(=O)[C@H](CC(C)C)NC(=O)[C@H](CCCNC(=N)N)NC(=O)[C@H](Cc2ccc(O)cc2)NC(=O)[C@H](CC(C)C)NC(=O)[C@H](CCCNC(=N)N)NC(=O)[C@H](CCCNC(=N)N)NC(=O)[C@H](CO)NC1=O (H-ATCYCRTGRCATRESLSGVCEISRRLYRLCCR-OH; disulfide 3-31, 5-20, 10-30)",,3.1,1.5,,,,,,,5.8,1.6,,,,,,
"CC[C@H](C)[C@@H]1NC(=O)[C@H](CCC(=O)O)NC(=O)[C@@H]2CSSC[C@@H]3NC(=O)[C@H](Cc4ccc(O)cc4)NC(=O)[C@@H](NC(=O)[C@@H](NC(=O)[C@H](C)N)[C@@H](C)O)CSSC[C@@H](C(=O)N[C@@H](CCCNC(=N)N)C(=O)O)NC(=O)[C@H](CSSC[C@H](NC(=O)[C@H](CCCNC(=N)N)NC(=O)CNC(=O)[C@H]([C@@H](C)O)NC(=O)[C@H](CCCNC(=N)N)NC3=O)C(=O)N[C@@H](C)C(=O)N[C@@H]([C@@H](C)O)C(=O)N[C@@H](CCCNC(=N)N)C(=O)N[C@@H](CCC(=O)O)C(=O)N[C@@H](CO)C(=O)N[C@@H](CC(C)C)C(=O)N[C@@H](CO)C(=O)NCC(=O)N[C@@H](C(C)C)C(=O)N2)NC(=O)[C@H](CC(C)C)NC(=O)[C@H](CCCNC(=N)N)NC(=O)[C@H](Cc2ccc(O)cc2)NC(=O)[C@H](CC(C)C)NC(=O)[C@H](CCCNC(=N)N)NC(=O)CNC(=O)[C@H](CO)NC1=O (H-ATCYCRTGRCATRESLSGVCEISGRLYRLCCR-OH; disulfide 3-31, 5-20, 10-30)",,3.4,1.9,,inactive,,inactive,0.21,,6.6,3.3,inactive,0.12,0.22,Active,Active,
"CC[C@H](C)[C@@H]1NC(=O)[C@H](CCC(=O)O)NC(=O)[C@@H]2CSSC[C@@H]3NC(=O)[C@H](Cc4ccc(O)cc4)NC(=O)[C@@H](NC(=O)[C@@H](NC(=O)[C@H](C)N)[C@@H](C)O)CSSC[C@@H](C(=O)N[C@@H](CCCNC(=N)N)C(=O)O)NC(=O)[C@H](CSSC[C@H](NC(=O)[C@H](CCCNC(=N)N)NC(=O)CNC(=O)[C@H]([C@@H](C)O)NC(=O)[C@H](CCCNC(=N)N)NC3=O)C(=O)N[C@@H](C)C(=O)N[C@@H]([C@@H](C)O)C(=O)N[C@@H](CCCNC(=N)N)C(=O)N[C@@H](CCC(=O)O)C(=O)N[C@@H](CO)C(=O)N[C@@H](CC(C)C)C(=O)N[C@@H](CO)C(=O)NCC(=O)N[C@@H](C(C)C)C(=O)N2)NC(=O)[C@H](CC(C)C)NC(=O)[C@H](CCCNC(=N)N)NC(=O)[C@H](Cc2ccc(O)cc2)NC(=O)[C@H](CC(C)C)NC(=O)[C@H](CCCNC(=N)N)NC(=O)CNC(=O)[C@H](CCCNC(=N)N)NC1=O (H-ATCYCRTGRCATRESLSGVCEIRGRLYRLCCR-OH; disulfide 3-31, 5-20, 10-30)",,3,1.5,,,,,,,6,1.7,,,,,,
"CC[C@H](C)[C@@H]1NC(=O)[C@H](CCC(=O)O)NC(=O)[C@@H]2CSSC[C@@H]3NC(=O)[C@H](Cc4ccc(O)cc4)NC(=O)[C@@H](NC(=O)[C@@H](NC(=O)[C@H](C)N)[C@@H](C)O)CSSC[C@@H](C(=O)N[C@@H](CCCNC(=N)N)C(=O)O)NC(=O)[C@H](CSSC[C@H](NC(=O)[C@H](CCCNC(=N)N)NC(=O)CNC(=O)[C@H](CCCNC(=N)N)NC(=O)[C@H](CCCNC(=N)N)NC3=O)C(=O)N[C@@H](C)C(=O)N[C@@H]([C@@H](C)O)C(=O)N[C@@H](CCCNC(=N)N)C(=O)N[C@@H](CCC(=O)O)C(=O)N[C@@H](CO)C(=O)N[C@@H](CC(C)C)C(=O)N[C@@H](CO)C(=O)NCC(=O)N[C@@H](C(C)C)C(=O)N2)NC(=O)[C@H](CC(C)C)NC(=O)[C@H](CCCNC(=N)N)NC(=O)[C@H](Cc2ccc(O)cc2)NC(=O)[C@H](CC(C)C)NC(=O)[C@H](CCCNC(=N)N)NC(=O)CNC(=O)[C@H](CO)NC1=O (H-ATCYCRRGRCATRESLSGVCEISGRLYRLCCR-OH; disulfide 3-31, 5-20, 10-30)",,2.8,1.3,,,,,,,5,1.4,,,,,,
"CC[C@H](C)[C@@H]1NC(=O)[C@H](CCCNC(=N)N)NC(=O)[C@@H]2CSSC[C@@H]3NC(=O)[C@H](Cc4ccc(O)cc4)NC(=O)[C@@H](NC(=O)[C@@H](NC(=O)[C@H](C)N)[C@@H](C)O)CSSC[C@@H](C(=O)N[C@@H](CCCNC(=N)N)C(=O)O)NC(=O)[C@H](CSSC[C@H](NC(=O)[C@H](CCCNC(=N)N)NC(=O)CNC(=O)[C@H]([C@@H](C)O)NC(=O)[C@H](CCCNC(=N)N)NC3=O)C(=O)N[C@@H](C)C(=O)N[C@@H]([C@@H](C)O)C(=O)N[C@@H](CCCNC(=N)N)C(=O)N[C@@H](CCC(=O)O)C(=O)N[C@@H](CO)C(=O)N[C@@H](CC(C)C)C(=O)N[C@@H](CO)C(=O)NCC(=O)N[C@@H](C(C)C)C(=O)N2)NC(=O)[C@H](CC(C)C)NC(=O)[C@H](CCCNC(=N)N)NC(=O)[C@H](Cc2ccc(O)cc2)NC(=O)[C@H](CC(C)C)NC(=O)[C@H](CCCNC(=N)N)NC(=O)CNC(=O)[C@H](CO)NC1=O (H-ATCYCRTGRCATRESLSGVCRISGRLYRLCCR-OH; disulfide 3-31, 5-20, 10-30)",,2.2,0.6,,,,,,,3.1,1.3,,0.033,0.085,Active,,Active
